{"source": "patent US8476317B2", "about": "“N-alkylcarbonyl-amino acid ester compounds and their use for cough and pharyngitis” (priority 2011, dated 2013)", "key": {"TRP-M8": {"target": "T1, TRP-M8 (Homo sapiens, UniProt Q7Z2W7)", "T1 construct": "expressed in transfected cells", "T1 sequence (Q7Z2W7 whole entry, species assumed)": "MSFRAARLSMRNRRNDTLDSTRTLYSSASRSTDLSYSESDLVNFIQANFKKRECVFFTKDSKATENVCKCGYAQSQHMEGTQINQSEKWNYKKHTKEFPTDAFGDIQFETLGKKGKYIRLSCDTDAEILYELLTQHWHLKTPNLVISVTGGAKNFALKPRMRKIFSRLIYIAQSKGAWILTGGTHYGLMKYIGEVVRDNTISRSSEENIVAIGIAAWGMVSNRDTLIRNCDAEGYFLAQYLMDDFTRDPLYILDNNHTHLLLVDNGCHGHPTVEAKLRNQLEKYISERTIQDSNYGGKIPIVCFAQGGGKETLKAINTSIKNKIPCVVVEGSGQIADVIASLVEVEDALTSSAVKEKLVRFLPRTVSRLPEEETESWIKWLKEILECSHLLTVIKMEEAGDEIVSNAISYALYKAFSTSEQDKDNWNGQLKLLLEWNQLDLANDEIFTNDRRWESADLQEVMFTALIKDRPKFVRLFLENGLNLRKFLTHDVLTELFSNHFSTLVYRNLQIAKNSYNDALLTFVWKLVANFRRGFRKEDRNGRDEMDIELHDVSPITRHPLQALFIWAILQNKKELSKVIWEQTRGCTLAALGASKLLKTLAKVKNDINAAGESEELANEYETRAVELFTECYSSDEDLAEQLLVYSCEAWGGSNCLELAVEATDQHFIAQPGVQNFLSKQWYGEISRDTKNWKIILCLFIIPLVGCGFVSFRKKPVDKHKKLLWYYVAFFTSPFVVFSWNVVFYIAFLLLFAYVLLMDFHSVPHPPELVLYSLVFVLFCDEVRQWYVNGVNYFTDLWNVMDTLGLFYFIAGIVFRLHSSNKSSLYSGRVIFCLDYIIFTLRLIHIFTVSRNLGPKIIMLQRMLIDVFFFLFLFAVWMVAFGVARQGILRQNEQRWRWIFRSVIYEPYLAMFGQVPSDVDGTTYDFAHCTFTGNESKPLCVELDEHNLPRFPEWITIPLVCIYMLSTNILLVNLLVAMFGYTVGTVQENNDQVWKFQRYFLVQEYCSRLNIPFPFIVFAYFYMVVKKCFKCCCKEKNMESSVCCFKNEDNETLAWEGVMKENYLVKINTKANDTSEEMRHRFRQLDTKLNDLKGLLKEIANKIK", "assay": "TRP-M8 receptor assay", "format": "cell-based", "details": "for pEC50: data from Prof. D. Bautista's laboratory", "from_the_text": "Psychic events such as refreshment, soothing, cooling, irritation, itch, and pain cannot be verbalized by animals (animals cannot say “it feels cold”, “ouch”, or that “it itches”). […] Receptor assays, based on cells transfected with the genes for proteins associated with thermosensation (e.g., TRP-M8, TRP-A1, TRP-V1) may be used as a model of sensory processes and provide quantitative data. […] The in vitro assay gives no information on onset and offset of action, but yields information on comparative potency of the two enantiomers. Further evaluation of the pharmacological properties of the test substances were based on direct tests in human subjects.\nThus, the D-configuration of the α-carbon of Ala is an absolute requirement for therapeutic utility in cough. This separation of activity between the D- and L-enantiomers was also apparent in the TRP-M8 receptor assay (data from Prof. D. Bautista's laboratory at the University of California at Berkeley). […] Thus, in an equal mixture (racemic) of D-Ala and L-Ala enantiomers, it is likely that ˜97% of the anti-cough activity would be contributed by the D-enantiomer (of Formula 1)."}, "cough": {"tested_on": "cough", "format": "in vivo, human", "details": "for cooling action of ODT on the pharyngeal surface: Study 6, ODT; for effectiveness in reducing cough: Study 6, ODT 2.0 to 2.5 mg, 14 adult males with cough", "method": "In 20 trials, 10 trials per subject, two mg of 95%+ pure powder of a D-Ala ethyl compound (No. 2 in Table 1, (R)-2-[((1R,2S,5R)-2-isopropyl-5-methyl-cyclohexanecarbonyl)-amino]-propionic acid ethyl ester)) of Formula (1) was placed on the mid-portion of the tongue of these two subjects. Both subjects reported relief from the desire to cough within 1 minute after application. Sensations of robust coolness in the back of the throat was noted and lasted for about 30 minutes. Applications of similar amounts of powdered sugar were not effective. The placebo could be clearly distinguished from the active compound because of the absence of cooling sensations.\nA person with a documented 31-year history of asthma attacks volunteered to test one of the compounds falling within Formula (1). They were extremely sensitive to agents such as tobacco smoke, dust, pollen, odors, down/woolen materials, house cleansing products, pets, and sudden change of air temperature, and reacted with violent coughing, mucus secretions, wheezing, choking, and shortness of breath. At the time of this trial, they were taking these medications for their condition: theophylline, Allegra®, Advair®, Intal®, and Singulair®. In 5 trials, during a coughing spree, they placed one to two mg of 95%+ pure powder of a D-Ala ethyl ester (No. 2 in Table 1, ((R)-2-[((1R,2S,5R)-2-isopropyl-5-methyl-cyclohexanecarbonyl)-amino]-propionic acid ethyl ester))) of Formula (1) on the mid-portion of their tongue. They reported a soothing and cool sensation with a slight taste similar to Eucalyptus oil in their mouth and throat. Coughing stopped after 3 to 5 minutes and breathing was normal. […] In three trials when the compound was applied at night, they slept through the night without being awakened by cough. Their spouse remarked that, in over 30 years of marriage, this was the first time that they had seen an effective medication for their cough. They noted that the irritative signals of cough were absent in the presence of the applied chemical, but they still sensed a mechanical build up of secretions in their airways and could voluntarily cough up such secretions if necessary. They continue to use the test compound for management of their asthma, with the knowledge and consent of their physician.\nA person had adult-onset asthma for 20 years. Triggers for attacks were tobacco smoke, dust, and changes in air temperature. They used Foradil® (formoterol fumarate) and Asmanex® (mometasone fuorate) twice a day to control their asthma, and monitored their pulmonary function with a portable device for measuring peak expiratory flow. They had daily episodes of both productive and non-productive cough. In 5 trials, when they felt throat irritation and a desire to cough, placement of 1 to 3 mg of (R)-2-[((1R,2S,5R)-2-isopropyl-5-methyl-cyclohexanecarbonyl)-amino]-propionic acid ethyl ester) (No. 2 in Table 1) provided rapid relief and was described as soothing and removed “tightness” in the chest. Peak expiratory flow improved from 320 Umin to 370 Umin. […] The subjective response to the long-acting NACE compound was definitely favourable. The subject remarked that the best time to use the NACE compuound was after inhaling the crystalline Foradil® because this inhaled drug irritated their throat.\nODT containing 2.0 to 2.5 mg of D-Aa Me Ester, D-Ala Et Ester, or D-Ala iPr Ester (identified chemically in Table 1 as No. 1, No. 2, and No. 3, respectively) were prepared using mannitol/maltitol as the excipient and stored in tic-tac boxes each containing 10 tablets. Over a course of two years, 14 adult males with cough tested these tablets. The causes of coughing were colds/flu, allergies, pharyngitis, excessive smoking, and two cases of gastroesophageal reflux. These individuals all had advanced degrees (M.D. or Ph.D.) and were motivated to try the tablets by scientific curiosity or because of financial interests in drug development, or, in several cases, by the annoyance caused by the cough. […]"}, "oral cavity / oropharynx": {"tested_on": "oral cavity / oropharynx", "assay": "Cooling in oral cavity after application on dorsal surface of tongue", "format": "in vivo, human", "details": "dose of 1 to 2 mg, normal subjects", "method": "The subject is instructed to close and hold the substance in the mouth for at least 10 seconds and not to swallow. The description of sensations is then recorded at 5 to 10 minute intervals.\nThe compounds of Formula 1 are white crystalline solids at room temperatures. These compounds were tested as the pure powder (>95% purity, by HPLC analysis), or mixed 1:1 with powdered or granulated sugar. The test substances were applied at 2 to 5 mg on the mid-point of the dorsal surface of the tongue using a metal spatula or a plastic applicator. After depositing the test substance on the tongue, the subject was instructed to keep the mouth closed and allow the fluids of the mouth to inter-mix with the test substance and to distribute it to the back of the mouth (oropharynx). The presence and duration of subjective sensations from the mouth was then recorded."}}, "note": "pEC50: −log10 of the molar value. Where “and” joins values, the source holds several entries; their conditions need not be identical. Equal values may be shown once.", "data": [{"smiles": "CCOC(=O)[C@@H](C)NC(=O)[C@@H]1C[C@H](C)CC[C@H]1C(C)C", "note": "[D-Ala-OEt, (R)-2-[((1R,2S,5R)-2-isopropyl-5-methyl-cyclohexanecarbonyl)-amino]-propionic acid ethyl ester]", "values": [{"measurement": "difference of EC50, D-Ala-OEt versus L-Ala-OEt", "setting": "TRP-M8; TRP-M8 receptor assay", "result": 37, "unit": "fold"}, {"measurement": "pEC50", "setting": "TRP-M8", "result": "6.32 and 6.30"}, {"measurement": "duration of absence of irritation and itching at the back of the throat (cough signals)", "setting": "cough; Study 3", "result": "4 to 5", "unit": "h"}, {"measurement": "time individual was observed not to cough", "setting": "cough; Study 3", "result": "6 to 8", "unit": "h"}, {"measurement": "time desire to cough was removed", "setting": "cough; Study 3, after 4 or 6 applications within 2 days", "result": "at least 5 days"}, {"measurement": "time to relief from the desire to cough", "setting": "cough; Study 3, two cigar smokers, two mg powder on tongue", "result": "≤ 1", "unit": "min"}, {"measurement": "duration of robust coolness in the back of the throat", "setting": "cough; Study 3, two mg powder on tongue", "result": "about 30 minutes"}, {"measurement": "time until coughing stopped", "setting": "cough; Study 4, asthmatic, one to two mg on tongue", "result": "3 to 5", "unit": "min"}, {"measurement": "recurrence of asthmatic coughing attacks", "setting": "cough; Study 4, continued use", "result": "have not recurred with any severity for one month"}, {"measurement": "effect when given in the midst of a productive cough spell", "setting": "cough; Study 5, 3 episodes", "result": "no significant effects were observed"}, {"measurement": "relief of throat irritation and desire to cough", "setting": "cough; Study 5, 5 trials, 1 to 3 mg", "result": "rapid relief"}, {"measurement": "Peak expiratory flow", "setting": "cough; Study 5, asthmatic, 1 to 3 mg, improved from 320", "result": 370, "unit": "Umin"}, {"measurement": "cooling action of ODT on the pharyngeal surface", "setting": "cough", "result": "robust cooling action"}, {"measurement": "effectiveness in reducing cough", "setting": "cough", "result": 100, "unit": "%"}, {"measurement": "side-effects", "setting": "cough; human, in vivo", "result": "did not sense any build up of mucus or other side-effects"}, {"measurement": "duration of cooling sensations on the tongue", "setting": "oral cavity / oropharynx", "result": "about 30 minutes"}]}, {"smiles": "COC(=O)[C@@H](C)NC(=O)[C@@H]1C[C@H](C)CC[C@H]1C(C)C", "note": "[D-Ala-OMe, (R)-2-[((1R,2S,5R)-2-isopropyl-5-methyl-cyclohexanecarbonyl)-amino]-propionic acid methyl ester]", "values": [{"measurement": "cooling action of ODT on the pharyngeal surface", "setting": "cough", "result": "robust cooling action"}, {"measurement": "effectiveness in reducing cough", "setting": "cough", "result": 100, "unit": "%"}, {"measurement": "duration of cooling sensations on the tongue", "setting": "oral cavity / oropharynx", "result": "about 30 minutes"}]}, {"smiles": "CCOC(=O)C(C)NC(=O)[C@@H]1C[C@H](C)CC[C@H]1C(C)C", "note": "(stereo partly drawn) [L-Ala-OEt]", "values": [{"measurement": "pEC50", "setting": "TRP-M8", "result": 4.74}, {"measurement": "cooling action of ODT on the pharyngeal surface", "setting": "cough", "result": "inactive"}]}]}
